We go through 4 molecules from publication PMC11555501 (ACS Pharmacology & Translational Science, 2024).

Non-standard residues stand in square brackets, D forms with d. Residues, ends and D or L forms follow the SMILES beside them. *: point of attachment. X1 = CN(C)c1ccc2c(c1)Oc1cc(N(C)C)ccc1C21OC(=O)c2ccc(C(=O)*)cc21; Bip = N[C@@H](Cc1ccc(-c2ccccc2)cc1)C(=O)O; Lauroyl = CCCCCCCCCCCC(=O)* Bounds are passed on as bounds.

Data set [1] is described as follows: Stability of Tam-labeled peptides in HEK-293 cell culture supernatant. The class given is in vitro ADME. As to conditions: for half-life at 10 μM: DMEM with 15% FBS on HEK-293 cells. The protocol:
The cells were grown under standard conditions. […] The medium was replaced with the peptide solutions.

Data set [2] can be described thus: Stability of Tam-labeled peptides in human blood plasma (RP-HPLC fluorescence, MALDI-ToF-MS). As to conditions: for half-life at 10 μM / remaining at 72 h, 10 μM: human.
Method: (§1) Peptide solutions were diluted as described above and incubated at 37 °C. Samples were precipitated in 2× ACN/EtOH (1:1, v/v) at −20 °C overnight and filtered through Costar Spin-X tubes. The solutions of Tam-labeled peptides diluted with H2O (1:1, v/v) were analyzed by RP-HPLC using a linear gradient of eluent B (0.1% TFA in H2O) in eluent A (0.08% TFA in ACN) over 40 min at 40 °C on a VariTide RPC column (250 mm × 4.6 mm, 200 Å, 6 μm, flow rate 1 mL/min, Agilent Technologies). The relative amount of intact peptide was determined by fluorescence intensity (extinction 525 nm, emission 572 nm). Half-life was calculated by one-phase decay in Prism 10. Furthermore, eluting peptides were collected, lyophilized, and analyzed by MALDI-ToF-MS.
A short description of data set [3]: Stability of Tam-labeled peptides in Calu-3 cell culture supernatant.
Method: as §1
HEK-293 cells were cultivated under standard conditions in Dulbecco’s modified Eagle’s medium (DMEM, Biowest)/Ham’s F12 (Biowest, 1:1, v/v) with 15% fetal bovine serum (FBS, Sigma-Aldrich). HEK-293 cells were detached with trypsin/ethylenediaminetetraacetic acid (Lonza) and seeded in a poly-D-lysine hydrobromide (Merck, 0.1 mg/mL)-coated 96-well cell culture microplate (Greiner Bio-One, 100,000 cells/well). The cells were grown under standard conditions. […] Cell differentiation was supported by culturing cells on an air–liquid interface for 10–14 days and monitored by measurement of transepithelial electrical resistance. […]
The nature of data set [4]: human blood plasma/DPBS (1:1). The note with it: 37 °C, up to 72 h.
Data set [5] in a line: HEK-293 supernatant (phenol red-free DMEM with 15% FBS). As to conditions: up to 72 h.

For orientation: half-life means the time in which the quantity being followed falls by half. Read a high half-life as slow loss. As usually defined, the share remaining is the share of the starting amount still present when the sample was taken. A high value points to greater stability.

With `CCCCCCCC(=O)NC[C@H](NC(=O)[C@H](CO)NC(=O)CN)C(=O)N[C@@H](Cc1ccccc1)C(=O)N[C@@H](CC(C)C)C(=O)N[C@@H](CO)C(=O)N1CCC[C@H]1C(=O)N[C@@H](CCC(=O)O)C(=O)N[C@@H](Cc1c[nH]cn1)C(=O)N[C@@H](CCC(N)=O)C(=O)N[C@@H](CCCNC(=N)N)C(=O)N[C@H](C(=O)N[C@@H](CCC(N)=O)C(=O)N[C@@H](CCC(N)=O)C(=O)N[C@@H](CCCNC(=N)N)C(=O)N[C@@H](CCCCNC(=O)c1ccc2c(c1)C1(OC2=O)c2ccc(N(C)C)cc2Oc2cc(N(C)C)ccc21)C(=O)N[C@@H](CCC(=O)O)C(=O)N[C@@H](CO)C(=O)N[C@@H](CCCCN)C(=O)N[C@@H](CCCCN)C(=O)N1CCC[C@H]1C(=O)N1CCC[C@H]1C(=O)N[C@@H](C)C(=O)N[C@@H](CCCCN)C(=O)N[C@@H](CC(C)C)C(=O)N[C@@H](CCC(N)=O)C(=O)N1CCC[C@H]1C(=O)N[C@@H](CCCNC(=N)N)C(=O)O)C(C)C` [peptide 3, [Dpr^3,K^16(Tam)]-Ghr], the half-life at 10 μM in data set [1] (human, 10 μM peptide) was 3430 min; in data set [2] (human blood plasma diluted with DPBS (1:1), blood plasma half-life, human blood plasma/DPBS (1:1), 10 μM peptide, 37 °C, one-phase decay), 2.1 days; in data set [2] (human blood plasma diluted with DPBS (1:1), donor plasma 3, half-life in plasma 3, donor comparison, plasma 3, plasma/DPBS (1:1), 10 μM, 37 °C), 2.39 days.
`CCCCCCCCCCCC(=O)NCCCC[C@H](N)C(=O)N[C@H](C(=O)N[C@@H](CC(N)=O)C(=O)N1CCC[C@H]1C(=O)N[C@@H](CCCCNC(=O)c1ccc2c(c1)C1(OC2=O)c2ccc(N(C)C)cc2Oc2cc(N(C)C)ccc21)C(=O)N[C@@H](Cc1ccc(-c2ccccc2)cc1)C(=O)N[C@@H](CCCNC(=N)N)C(=O)N[C@@H](CC(C)C)C(=O)N[C@@H](CCCNC(=N)N)C(=O)N[C@@H](Cc1ccc(O)cc1)C(N)=O)[C@@H](C)CC` [peptide 2, [K^27(Lau),K^31(Tam)]-sNPY(27–36)] (H-K(Lauroyl)INPK(X1)[Bip]RLRY-NH2; N-terminus assumed) had a half-life at 10 μM in data set [1] (human, 10 μM peptide) of 1400 min. The “stability in Calu-3 supernatant compared to HEK-293 supernatant” value in data set [3] is listed as “only slightly lower”. In addition, in data set [2] (plasma), the half-life at 10 μM is 0.133 days and the share remaining at 72 h, 10 μM came to 3%.
Consider “GS-Dpr(Oct)-FLSPEHQRVQQRK(Tam)ESKK(Odd)PPAKLQPR”, for which the not cleaved entry in data set [4] is on record as “around 90% intact peptide after 72 h”; in data set [5], “degradation of less than 10% over 72 h”.
With `CCCCCCCC(=O)NC[C@H](NC(=O)[C@H](CO)NC(=O)CN)C(=O)N[C@@H](Cc1ccccc1)C(=O)N[C@@H](CC(C)C)C(=O)N[C@@H](CO)C(=O)N1CCC[C@H]1C(=O)N[C@@H](CCC(=O)O)C(=O)N[C@@H](Cc1c[nH]cn1)C(=O)N[C@@H](CCC(N)=O)C(=O)N[C@@H](CCCNC(=N)N)C(=O)N[C@H](C(=O)N[C@@H](CCC(N)=O)C(=O)N[C@@H](CCC(N)=O)C(=O)N[C@@H](CCCNC(=N)N)C(=O)N[C@@H](CCCCNC(=O)c1ccc2c(c1)C1(OC2=O)c2ccc(N(C)C)cc2Oc2cc(N(C)C)ccc21)C(=O)N[C@@H](CCC(=O)O)C(=O)N[C@@H](CO)C(=O)N[C@@H](CCCCN)C(=O)N[C@@H](CCCCNC(=O)CCCCCCCCCCCCCCCCC(=O)O)C(=O)N1CCC[C@H]1C(=O)N1CCC[C@H]1C(=O)N[C@@H](C)C(=O)N[C@@H](CCCCN)C(=O)N[C@@H](CC(C)C)C(=O)N[C@@H](CCC(N)=O)C(=O)N1CCC[C@H]1C(=O)N[C@@H](CCCNC(=N)N)C(=O)O)C(C)C` [peptide 4, [Dpr^3,K^16(Tam),K^20(Odd)]-Ghr], the “cleavage products detected by MALDI-ToF MS, HEK-293 supernatant” value in data set [1] (HPLC eluents) is reported as “no cleavage was observed”. In data set [1] (human, HEK-293 cell culture supernatant, 10 μM peptide, DMEM with 15% FBS, 72 h, read-out: degradation over 72 h in HEK-293 supernatant), the metabolised at 72 h, 10 μM is below 10%. In addition, the “cleavage products detected by MALDI-ToF MS, Calu-3 supernatant” value in data set [3] (HPLC eluents) was “strong C- and N-terminal truncation”. In data set [2] (HPLC eluents), the “cleavage products detected by MALDI-ToF MS, blood plasma” value is on record as “no cleavage was observed”. The same molecule had a share remaining at 72 h, 10 μM in data set [2] (human blood plasma) of around 90%.
